Experimental data: article PMC5218480 (PLoS ONE, 2017)

System: MV-4-11 cells
Assay: Gene expression microarray analysis (Affymetrix PrimeView) and GSEA
Type: cell-based, human
Parameters: RFU PODN (11730768_x_at) / Fold change /veh PODN (11730768_x_at) / RFU LINC00158 (11744669_a_at) / Fold change /veh LINC00158 (11744669_a_at) / RFU DUSP10 (11751237_a_at) / Fold change /veh DUSP10 (11751237_a_at) / RFU ID3 (11757404_x_at) / Fold change /veh ID3 (11757404_x_at) / RFU PLEKHG5 (11737974_s_at) / Fold change /veh PLEKHG5 (11737974_s_at) / RFU LRRC4B (11730491_at) / Fold change /veh LRRC4B (11730491_at) / RFU GIMAP4 (11747438_a_at) / Fold change /veh GIMAP4 (11747438_a_at) / RFU KRT8 (11758183_x_at) / Fold change /veh KRT8 (11758183_x_at) / RFU CNN1 (11734310_a_at) / Fold change /veh CNN1 (11734310_a_at) / RFU VPS37D (11726825_at) / Fold change /veh VPS37D (11726825_at) / RFU C10orf10 (11716522_x_at) / Fold change /veh C10orf10 (11716522_x_at) / RFU KIR2DL2 /// KIR2DL4 /// KIR2DL5A /// KIR2DL5B /// KIR2DS1 /// KIR2DS2 /// KIR2DS3 /// KIR2DS4 /// KIR3DL3 /// KIR3DL3 /// KIR3DS1 (11738374_at) / Fold change /veh KIR2DL2 /// KIR2DL4 /// KIR2DL5A /// KIR2DL5B /// KIR2DS1 /// KIR2DS2 /// KIR2DS3 /// KIR2DS4 /// KIR3DL3 /// KIR3DL3 /// KIR3DS1 (11738374_at) / RFU C1QL1 (11718748_at) / Fold change /veh C1QL1 (11718748_at) / RFU TMPRSS4 (11747572_a_at) / Fold change /veh TMPRSS4 (11747572_a_at) / RFU HAMP (11756126_x_at) / Fold change /veh HAMP (11756126_x_at) / RFU RNFT2 (11725882_a_at) / Fold change /veh RNFT2 (11725882_a_at) / RFU NR4A2 (11747474_a_at) / Fold change /veh NR4A2 (11747474_a_at) / RFU ABCC12 (11746883_a_at) / Fold change /veh ABCC12 (11746883_a_at) / RFU TMEM136 (11760407_x_at) / Fold change /veh TMEM136 (11760407_x_at) / RFU CLDN22 /// WWC2 (11732394_at) / Fold change /veh CLDN22 /// WWC2 (11732394_at) / RFU HLA-DPB1 (11760878_x_at) / Fold change /veh HLA-DPB1 (11760878_x_at) / RFU SPINT1 (11716480_a_at) / Fold change /veh SPINT1 (11716480_a_at) / RFU GAP43 (11754022_s_at) / Fold change /veh GAP43 (11754022_s_at) / RFU A4GNT (11735810_at) / Fold change /veh A4GNT (11735810_at) / RFU PRB3 (11715151_x_at) / Fold change /veh PRB3 (11715151_x_at) / RFU TUBB4B (11761932_at) / Fold change /veh TUBB4B (11761932_at) / RFU CAPN14 (11732068_a_at) / Fold change /veh CAPN14 (11732068_a_at) / RFU TMCC2 (11721928_a_at) / Fold change /veh TMCC2 (11721928_a_at) / RFU IRGQ (11745062_a_at) / Fold change /veh IRGQ (11745062_a_at) / RFU FAM174B (11720279_a_at) / Fold change /veh FAM174B (11720279_a_at) / RFU TMPRSS4 (11748680_a_at) / Fold change /veh TMPRSS4 (11748680_a_at) / RFU FAM212B (11763350_a_at) / Fold change /veh FAM212B (11763350_a_at) / RFU PLEKHG5 (11743358_a_at) / Fold change /veh PLEKHG5 (11743358_a_at) / RFU ZSCAN30 (11745921_a_at) / Fold change /veh ZSCAN30 (11745921_a_at) / RFU CMKLR1 (11741424_a_at) / Fold change /veh CMKLR1 (11741424_a_at) / RFU LOC101060620 /// MAPK8IP1 (11723275_at) / Fold change /veh LOC101060620 /// MAPK8IP1 (11723275_at) / RFU SPTSSB (11747773_x_at) / Fold change /veh SPTSSB (11747773_x_at) / RFU PRSS12 (11739890_at) / Fold change /veh PRSS12 (11739890_at) / RFU BIN1 (11741810_x_at) / Fold change /veh BIN1 (11741810_x_at) / RFU WNT11 (11732464_a_at) / Fold change /veh WNT11 (11732464_a_at) / RFU C10orf10 (11716521_a_at) / Fold change /veh C10orf10 (11716521_a_at) / RFU C5orf56 (11738089_at) / Fold change /veh C5orf56 (11738089_at) / RFU CYB561 (11721691_x_at) / Fold change /veh CYB561 (11721691_x_at) / RFU ANKRD19P (11752326_a_at) / Fold change /veh ANKRD19P (11752326_a_at) / RFU OR2T12 /// OR2T33 /// OR2T8 (11738714_s_at) / Fold change /veh OR2T12 /// OR2T33 /// OR2T8 (11738714_s_at) / RFU VCAN (11748164_a_at) / Fold change /veh VCAN (11748164_a_at) / RFU JSRP1 (11732532_at) / Fold change /veh JSRP1 (11732532_at) / RFU KRTAP10-11 (11738290_x_at) / Fold change /veh KRTAP10-11 (11738290_x_at) / RFU MYO3A (11730013_a_at) / Fold change /veh MYO3A (11730013_a_at) / RFU EBF3 (11725865_a_at) / Fold change /veh EBF3 (11725865_a_at) / RFU CAMK2N1 (11719241_x_at) / Fold change /veh CAMK2N1 (11719241_x_at) / RFU C5orf56 (11738088_a_at) / Fold change /veh C5orf56 (11738088_a_at) / RFU OLFML3 (11715873_a_at) / Fold change /veh OLFML3 (11715873_a_at) / RFU LOC100653217 /// NTM (11731650_a_at) / Fold change /veh LOC100653217 /// NTM (11731650_a_at) / RFU MAPK11 (11762145_a_at) / Fold change /veh MAPK11 (11762145_a_at) / RFU FIZ1 (11724087_x_at) / Fold change /veh FIZ1 (11724087_x_at) / RFU OASL (11726364_x_at) / Fold change /veh OASL (11726364_x_at) / RFU SOX15 (11748057_x_at) / Fold change /veh SOX15 (11748057_x_at) / RFU CD79A (11719716_a_at) / Fold change /veh CD79A (11719716_a_at) / RFU HIST1H1D (11736915_at) / Fold change /veh HIST1H1D (11736915_at) / RFU CASKIN2 (11723855_a_at) / Fold change /veh CASKIN2 (11723855_a_at) / RFU LOC730098 (11760151_x_at) / Fold change /veh LOC730098 (11760151_x_at) / RFU OR4N2 (11742367_at) / Fold change /veh OR4N2 (11742367_at) / RFU PRRT2 (11749266_a_at) / Fold change /veh PRRT2 (11749266_a_at) / RFU SNX32 (11753110_a_at) / Fold change /veh SNX32 (11753110_a_at) / RFU CDHR5 (11726645_a_at) / Fold change /veh CDHR5 (11726645_a_at) / RFU RCAN1 (11760418_a_at) / Fold change /veh RCAN1 (11760418_a_at) / RFU FAM167A (11723789_a_at) / Fold change /veh FAM167A (11723789_a_at) / RFU FAM26E (11764081_at) / Fold change /veh FAM26E (11764081_at) / RFU ISYNA1 (11749810_s_at) / Fold change /veh ISYNA1 (11749810_s_at) / RFU ACY1 (11761880_at) / Fold change /veh ACY1 (11761880_at) / RFU 11764098_at / Fold change /veh 11764098_at / RFU SAMD14 (11745864_x_at) / Fold change /veh SAMD14 (11745864_x_at) / RFU NPB (11741838_a_at) / Fold change /veh NPB (11741838_a_at) / RFU TMPRSS6 (11731388_a_at) / Fold change /veh TMPRSS6 (11731388_a_at) / RFU KRTAP10-2 (11738614_at) / Fold change /veh KRTAP10-2 (11738614_at) / RFU ARHGAP8 /// PRR5-ARHGAP8 (11727945_x_at) / Fold change /veh ARHGAP8 /// PRR5-ARHGAP8 (11727945_x_at) / RFU KRTAP5-7 /// NADSYN1 (11734609_at) / Fold change /veh KRTAP5-7 /// NADSYN1 (11734609_at) / RFU RASL12 (11751679_a_at) / Fold change /veh RASL12 (11751679_a_at) / RFU CDKN2B (11736163_a_at) / Fold change /veh CDKN2B (11736163_a_at) / RFU PRF1 (11729649_at) / Fold change /veh PRF1 (11729649_at) / RFU, ZNF638 /// ZNF638-IT1 / Fold change vs veh, ZNF638 /// ZNF638-IT1 / RFU, PANK3 / Fold change vs veh, PANK3 / RFU, SH3YL1 / Fold change vs veh, SH3YL1 / RFU, ZEB2 / Fold change vs veh, ZEB2 / RFU, NRIP1 / Fold change vs veh, NRIP1 / RFU, PTTG1IP / Fold change vs veh, PTTG1IP / RFU, CAPN2 / Fold change vs veh, CAPN2 / RFU, MED14 / Fold change vs veh, MED14 / RFU, SNORA58 / Fold change vs veh, SNORA58 / RFU, C1orf63 / Fold change vs veh, C1orf63 / RFU, LRRFIP1 / Fold change vs veh, LRRFIP1 / RFU, NDUFAF7 / Fold change vs veh, NDUFAF7 / RFU, SLC12A2 / Fold change vs veh, SLC12A2 / RFU, IBTK / Fold change vs veh, IBTK / RFU, ESF1 / Fold change vs veh, ESF1 / Fold change vs veh, TMEM50B / RFU, TAOK1 / Fold change vs veh, TAOK1 / RFU, ACBD3 / Fold change vs veh, ACBD3 / RFU, TMA16 / Fold change vs veh, TMA16 / RFU, RWDD3 / Fold change vs veh, RWDD3 / RFU, BCAT1 / Fold change vs veh, BCAT1 / RFU, EDEM3 / Fold change vs veh, EDEM3 / RFU, TMEM33 / Fold change vs veh, TMEM33 / RFU, WDR75 / Fold change vs veh, WDR75 / RFU, AHCTF1 / Fold change vs veh, AHCTF1 / RFU, TFRC / Fold change vs veh, TFRC / RFU, ZDHHC17 / Fold change vs veh, ZDHHC17 / RFU, NOM1 / Fold change vs veh, NOM1 / RFU, ARL8B / Fold change vs veh, ARL8B / RFU, ZBTB11 / Fold change vs veh, ZBTB11 / RFU, TAMM41 / Fold change vs veh, TAMM41 / RFU, KIAA1704 /// LOC100996395 / Fold change vs veh, KIAA1704 /// LOC100996395 / RFU, ING1 / Fold change vs veh, ING1 / RFU, TRMT61B / Fold change vs veh, TRMT61B / RFU, FUBP3 / Fold change vs veh, FUBP3 / RFU, TP53 / Fold change vs veh, TP53 / RFU, TNKS2 / Fold change vs veh, TNKS2 / RFU, ZFP14 / Fold change vs veh, ZFP14 / RFU, ACTR2 / Fold change vs veh, ACTR2 / RFU, PPP3R1 / Fold change vs veh, PPP3R1 / RFU, PIK3R1 / Fold change vs veh, PIK3R1 / RFU, HNRNPA1 / Fold change vs veh, HNRNPA1 / RFU, RNF170 / Fold change vs veh, RNF170 / RFU, ZNF28 / Fold change vs veh, ZNF28 / RFU, RNGTT / Fold change vs veh, RNGTT / RFU, OGT / Fold change vs veh, OGT / RFU, BRD1 / Fold change vs veh, BRD1 / RFU, MARS / Fold change vs veh, MARS / RFU, ZNF655 / Fold change vs veh, ZNF655 / RFU, FAHD1 / Fold change vs veh, FAHD1 / RFU, BDP1 / Fold change vs veh, BDP1 / RFU, LRRCC1 / Fold change vs veh, LRRCC1 / RFU, ARID1A / Fold change vs veh, ARID1A / RFU, ZNF146 / Fold change vs veh, ZNF146 / RFU, ZNF330 / Fold change vs veh, ZNF330 / RFU, GPN3 / Fold change vs veh, GPN3 / RFU, C9orf123 / Fold change vs veh, C9orf123 / RFU, N4BP2L2 / Fold change vs veh, N4BP2L2 / RFU, ARFIP1 / Fold change vs veh, ARFIP1 / RFU, FAM179B / Fold change vs veh, FAM179B / RFU, BCL10 / Fold change vs veh, BCL10 / RFU, UHRF1BP1L / Fold change vs veh, UHRF1BP1L / RFU, BET1 / Fold change vs veh, BET1 / RFU, CNOT2 / Fold change vs veh, CNOT2 / RFU, ZNF268 / Fold change vs veh, ZNF268 / Fold change vs veh, ZNF507 / RFU, DGCR2 / Fold change vs veh, DGCR2 / RFU, WDSUB1 / Fold change vs veh, WDSUB1 / Fold change vs veh, HSP90B1 /// MIR3652 / RFU, ADSS / Fold change vs veh, ADSS / RFU, GK / Fold change vs veh, GK / RFU, ZNF148 / Fold change vs veh, ZNF148 / RFU, TAF9 / Fold change vs veh, TAF9 / RFU, SLC1A5 / Fold change vs veh, SLC1A5 / RFU, SLMO2 / Fold change vs veh, SLMO2 / RFU, ABCC4 / Fold change vs veh, ABCC4 / RFU, LOC101060439 /// RAP1B / Fold change vs veh, LOC101060439 /// RAP1B / RFU, RFX7 / Fold change vs veh, RFX7 / RFU, GTPBP10 / Fold change vs veh, GTPBP10 / RFU, CNEP1R1 / Fold change vs veh, CNEP1R1 / RFU, BIVM-ERCC5 /// ERCC5 / Fold change vs veh, BIVM-ERCC5 /// ERCC5 / RFU, ILF3 / Fold change vs veh, ILF3 / RFU 11762660_at / Fold change /veh 11762660_at / RFU VCAN (11757783_s_at) / Fold change /veh VCAN (11757783_s_at) / RFU DDX43 (11728927_at) / Fold change /veh DDX43 (11728927_at) / RFU KRT8 (11758188_x_at) / Fold change /veh KRT8 (11758188_x_at) / RFU NKD1 (11759106_at) / Fold change /veh NKD1 (11759106_at) / RFU SRD5A1 (11742802_a_at) / Fold change /veh SRD5A1 (11742802_a_at) / RFU TPSAB1 /// TPSB2 (11721975_s_at) / Fold change /veh TPSAB1 /// TPSB2 (11721975_s_at) / RFU GSTM3 (11746129_a_at) / Fold change /veh GSTM3 (11746129_a_at) / RFU IL23R (11737362_x_at) / Fold change /veh IL23R (11737362_x_at) / RFU TMEM51 (11727254_a_at) / Fold change /veh TMEM51 (11727254_a_at) / RFU PIWIL2 (11732686_x_at) / Fold change /veh PIWIL2 (11732686_x_at) / RFU ORM1 (11744905_x_at) / Fold change /veh ORM1 (11744905_x_at) / RFU CCDC152 (11743942_at) / Fold change /veh CCDC152 (11743942_at) / RFU ECM1 (11717891_a_at) / Fold change /veh ECM1 (11717891_a_at) / RFU IL23R (11748794_a_at) / Fold change /veh IL23R (11748794_a_at) / RFU TNFAIP8L3 (11732012_x_at) / Fold change /veh TNFAIP8L3 (11732012_x_at) / RFU MBOAT4 (11741988_at) / Fold change /veh MBOAT4 (11741988_at) / RFU 11764193_at / Fold change /veh 11764193_at / RFU TMEM53 (11763286_at) / Fold change /veh TMEM53 (11763286_at) / RFU MAGEB2 (11727129_at) / Fold change /veh MAGEB2 (11727129_at) / RFU TMEM200A (11744735_a_at) / Fold change /veh TMEM200A (11744735_a_at) / RFU CCDC152 (11751479_a_at) / Fold change /veh CCDC152 (11751479_a_at) / RFU FAM211A (11726209_a_at) / Fold change /veh FAM211A (11726209_a_at) / RFU RGS16 (11746705_a_at) / Fold change /veh RGS16 (11746705_a_at) / RFU VCAN (11755009_s_at) / Fold change /veh VCAN (11755009_s_at) / RFU RHOB (11743442_s_at) / Fold change /veh RHOB (11743442_s_at) / RFU RGS16 (11720943_a_at) / Fold change /veh RGS16 (11720943_a_at) / RFU RGS16 (11720944_at) / Fold change /veh RGS16 (11720944_at) / RFU, VPS4B / Fold change vs veh, VPS4B / RFU, CREB1 / Fold change vs veh, CREB1 / RFU, DNAJC13 / Fold change vs veh, DNAJC13 / RFU, GNAQ / Fold change vs veh, GNAQ / RFU, CDK5R1 / Fold change vs veh, CDK5R1 / RFU, ZRANB3 / Fold change vs veh, ZRANB3 / RFU, CUL4A / Fold change vs veh, CUL4A / RFU, CCNY / Fold change vs veh, CCNY / RFU, UFL1 / Fold change vs veh, UFL1 / RFU, COG3 / Fold change vs veh, COG3 / RFU, DIAPH2 / Fold change vs veh, DIAPH2 / RFU, SKA2 / Fold change vs veh, SKA2 / RFU, AFF3 / Fold change vs veh, AFF3 / RFU, LMF1 / Fold change vs veh, LMF1 / RFU, IPO11 / Fold change vs veh, IPO11 / RFU, DFFB / Fold change vs veh, DFFB / RFU, FOXP1 / Fold change vs veh, FOXP1 / RFU, CARD8 / Fold change vs veh, CARD8 / RFU, STRN3 / Fold change vs veh, STRN3 / RFU, ADK / Fold change vs veh, ADK / RFU, RASSF2 / Fold change vs veh, RASSF2 / RFU, WIPF1 / Fold change vs veh, WIPF1 / RFU, LARP1B / Fold change vs veh, LARP1B / RFU, RASA1 / Fold change vs veh, RASA1 / RFU, RB1 / Fold change vs veh, RB1 / RFU, PPFIA1 / Fold change vs veh, PPFIA1 / RFU, MAT2A / Fold change vs veh, MAT2A / RFU, CCT5 / Fold change vs veh, CCT5 / RFU, WDR92 / Fold change vs veh, WDR92 / RFU, CUX1 / Fold change vs veh, CUX1 / RFU, TTC7A / Fold change vs veh, TTC7A / RFU, TMEM135 / Fold change vs veh, TMEM135 / RFU, DEPTOR / Fold change vs veh, DEPTOR / RFU, CPM / Fold change vs veh, CPM / RFU, DNAJB6 / Fold change vs veh, DNAJB6 / RFU, CACNA2D3 / Fold change vs veh, CACNA2D3 / RFU, DTX4 / Fold change vs veh, DTX4 / RFU, TFCP2 / Fold change vs veh, TFCP2 / RFU, GMCL1 /// GMCL1P1 / Fold change vs veh, GMCL1 /// GMCL1P1 / RFU, AEBP2 / Fold change vs veh, AEBP2 / RFU, SNHG1 /// SNORD22 /// SNORD25 /// SNORD26 /// SNORD27 /// SNORD28 /// SNORD29 /// SNORD31 / Fold change vs veh, SNHG1 /// SNORD22 /// SNORD25 /// SNORD26 /// SNORD27 /// SNORD28 /// SNORD29 /// SNORD31 / Fold change (Aza/veh), C12orf56 (ProbeSet 11735607_a_at) / Fold change (ACY-1035/veh), C12orf56 (ProbeSet 11735607_a_at) / Fold change (Aza/veh), FGFR1OP (ProbeSet 11751329_s_at) / Fold change (ACY-1035/veh), FGFR1OP (ProbeSet 11751329_s_at) / Fold change (Aza/veh), VPS36 (ProbeSet 11739960_a_at) / Fold change (ACY-1035/veh), VPS36 (ProbeSet 11739960_a_at) / RFU SYPL1 (11715823_x_at) / Fold change /veh SYPL1 (11715823_x_at) / RFU IGFBP7 (11715501_s_at) / Fold change /veh IGFBP7 (11715501_s_at) / RFU REEP3 (11722064_at) / Fold change /veh REEP3 (11722064_at) / RFU IGLL1 (11728026_x_at) / Fold change /veh IGLL1 (11728026_x_at): dose or concentration left out as unconfirmed
Conditions: ProbeSet 11760938_a_at; LIST D

Nc1ncn([C@@H]2O[C@H](CO)[C@@H](O)[C@H]2O)c(=O)n1 [azacitidine]
Fold change vs veh, MAT2A: 0.66
